Values of other authors as cited in patent publication US6514527B1, “Compositions comprising a mixture of bioflavonols” (Merck Patentgesellschaft, priority 1998, dated 2003).

Conditions: orally administered

| Compound | time to reach peak |
| --- | --- |
| O=c1c(O[C@@H]2O[C@H](CO)[C@@H](O)[C@H](O)[C@H]2O)c(-c2ccc(O)c(O)c2)oc2cc(O)cc(O)c12 [isoquercetin] | about 0.70 h |
| O=c1c(O)c(-c2ccc(O)c(O)c2)oc2cc(O)cc(O)c12 [quercetin] | about 3 h |
